Data on 13 compounds can be found in the NIST ThermoML archive (doi:10.1016/j.jct.2013.04.014).

Numbers after ± are expanded uncertainties.

A short description of data set [1]: xn = mol fraction of the nth substance listed. The note with it: 298.2 K; for surface tension liquid-gas: Pendant drop shape; for mass density: 101.33 kPa, Liquid, Vibrating tube method.
For data set [2] the following is noted: 298.2 K; for surface tension liquid-gas: Pendant drop shape; for mass density: 101.33 kPa, Liquid, Vibrating tube method.

On to `CCC[N+]1(C)CCCCC1.O=S(=O)([N-]S(=O)(=O)C(F)(F)F)C(F)(F)F` + CCCC[n+]1ccn(C)c1.O=S(=O)([N-]S(=O)(=O)C(F)(F)F)C(F)(F)F, for which the surface tension liquid-gas amounted to 33.53 ± 1.1 mN/m in data set [1] (x1 = 0.2156); 33.9 ± 1.1 mN/m in data set [1] (x1 = 0.4069); 34.08 ± 1.1 mN/m in data set [1] (x1 = 0.4988); 34.28 ± 1.1 mN/m in data set [1] (x1 = 0.5955); 34.71 ± 1.1 mN/m in data set [1] (x1 = 0.7958); 35.17 ± 1.1 mN/m in data set [1] (x1 = 1). The mass density in data set [1] (x1 = 0.2156) is given as 1432.9 ± 2.1 kg/m3; in data set [1] (x1 = 0.4069), 1428.5 ± 2.1 kg/m3; in data set [1] (x1 = 0.4988), 1426.2 ± 2.1 kg/m3; in data set [1] (x1 = 0.5955), 1423.7 ± 2.1 kg/m3; in data set [1] (x1 = 0.7958), 1417.9 ± 2.1 kg/m3; in data set [1] (x1 = 1), 1411.4 ± 2.1 kg/m3.
As for `CCC[n+]1cccc(C)c1.O=S(=O)([N-]S(=O)(=O)C(F)(F)F)C(F)(F)F`, in data set [2], the surface tension liquid-gas is given as 35.02 ± 1.1 mN/m and the mass density was found to be 1449.7 ± 2.1 kg/m3.
Take `CCC[N+]1(C)CCCC1.O=S(=O)([N-]S(=O)(=O)C(F)(F)F)C(F)(F)F`: in data set [2], the surface tension liquid-gas was 35.35 ± 1.1 mN/m and the mass density is 1431.7 ± 2.1 kg/m3.
For the compound `CCCC[n+]1ccn(C)c1.O=S(=O)([N-]S(=O)(=O)C(F)(F)F)C(F)(F)F` + CCC[N+]1(C)CCCC1.O=S(=O)([N-]S(=O)(=O)C(F)(F)F)C(F)(F)F, in data set [1] (x2 = 0), the surface tension liquid-gas is reported as 33.15 ± 1.1 mN/m and the mass density was 1436.9 ± 2.1 kg/m3.
The corresponding values for `CCCC[n+]1ccn(C)c1.O=S(=O)([N-]S(=O)(=O)C(F)(F)F)C(F)(F)F` + CCCCn1cc[n+](C)c1C.O=S(=O)([N-]S(=O)(=O)C(F)(F)F)C(F)(F)F are 33.15 ± 1.1 mN/m and 1436.9 ± 2.1 kg/m3.
Take `CCCCn1cc[n+](C)c1C.O=S(=O)([N-]S(=O)(=O)C(F)(F)F)C(F)(F)F`: in data set [2], the surface tension liquid-gas was 34.5 ± 1.1 mN/m and the mass density came out at 1421.2 ± 2.1 kg/m3.
As to `CCCC[n+]1ccn(C)c1.O=S(=O)([N-]S(=O)(=O)C(F)(F)F)C(F)(F)F` + CCC[n+]1cccc(C)c1.O=S(=O)([N-]S(=O)(=O)C(F)(F)F)C(F)(F)F, in data set [1] (x2 = 0), the surface tension liquid-gas amounted to 33.15 ± 1.1 mN/m and the mass density is 1436.9 ± 2.1 kg/m3.
The corresponding values for `CCCC[n+]1ccn(C)c1.O=S(=O)([N-]S(=O)(=O)C(F)(F)F)C(F)(F)F` + CCC[N+]1(C)CCCCC1.O=S(=O)([N-]S(=O)(=O)C(F)(F)F)C(F)(F)F are 33.15 ± 1.1 mN/m and 1436.9 ± 2.1 kg/m3.
`CCCCn1cc[n+](C)c1C.O=S(=O)([N-]S(=O)(=O)C(F)(F)F)C(F)(F)F` + CCCC[n+]1ccn(C)c1.O=S(=O)([N-]S(=O)(=O)C(F)(F)F)C(F)(F)F: the surface tension liquid-gas in data set [1] (x1 = 0.2193) was 33.38 ± 1.1 mN/m; in data set [1] (x1 = 0.3981), 33.59 ± 1.1 mN/m; in data set [1] (x1 = 0.4962), 33.72 ± 1.1 mN/m; in data set [1] (x1 = 0.5995) it was 33.87 ± 1.1 mN/m; in data set [1] (x1 = 0.7896) it was 34.16 ± 1.1 mN/m; in data set [1] (x1 = 1) it was 34.5 ± 1.1 mN/m. The mass density in data set [1] (x1 = 0.2193) amounted to 1433.8 ± 2.1 kg/m3; in data set [1] (x1 = 0.3981), 1431.2 ± 2.1 kg/m3; in data set [1] (x1 = 0.4962), 1429.6 ± 2.1 kg/m3; in data set [1] (x1 = 0.5995), 1428 ± 2.1 kg/m3; in data set [1] (x1 = 0.7896) it was 1424.9 ± 2.1 kg/m3; in data set [1] (x1 = 1), 1421.2 ± 2.1 kg/m3.
Turning to `CCC[N+]1(C)CCCC1.O=S(=O)([N-]S(=O)(=O)C(F)(F)F)C(F)(F)F` + CCCC[n+]1ccn(C)c1.O=S(=O)([N-]S(=O)(=O)C(F)(F)F)C(F)(F)F, the surface tension liquid-gas in data set [1] (x1 = 0.2094) came to 33.63 ± 1.1 mN/m; in data set [1] (x1 = 0.3935) it was 34.04 ± 1.1 mN/m; in data set [1] (x1 = 0.5004), 34.27 ± 1.1 mN/m; in data set [1] (x1 = 0.5943), 34.48 ± 1.1 mN/m; in data set [1] (x1 = 0.7854), 34.89 ± 1.1 mN/m; in data set [1] (x1 = 1), 35.35 ± 1.1 mN/m. The mass density is reported as 1436.9 ± 2.1 kg/m3 in data set [1] (x1 = 0.2094); 1436.4 ± 2.1 kg/m3 in data set [1] (x1 = 0.3935); 1435.9 ± 2.1 kg/m3 in data set [1] (x1 = 0.5004); 1435.4 ± 2.1 kg/m3 in data set [1] (x1 = 0.5943); 1433.9 ± 2.1 kg/m3 in data set [1] (x1 = 0.7854); 1431.7 ± 2.1 kg/m3 in data set [1] (x1 = 1).
In the case of `CCC[n+]1cccc(C)c1.O=S(=O)([N-]S(=O)(=O)C(F)(F)F)C(F)(F)F` + CCCC[n+]1ccn(C)c1.O=S(=O)([N-]S(=O)(=O)C(F)(F)F)C(F)(F)F, the surface tension liquid-gas in data set [1] (x1 = 0.2093) turned out to be 33.42 ± 1.1 mN/m; in data set [1] (x1 = 0.3996) it was 33.73 ± 1.1 mN/m; in data set [1] (x1 = 0.4995) it was 33.91 ± 1.1 mN/m; in data set [1] (x1 = 0.6047) it was 34.12 ± 1.1 mN/m; in data set [1] (x1 = 0.8024) it was 34.55 ± 1.1 mN/m; in data set [1] (x1 = 1), 35.02 ± 1.1 mN/m. In addition, the mass density in data set [1] (x1 = 0.2093) turned out to be 1440.2 ± 2.1 kg/m3; in data set [1] (x1 = 0.3996) it was 1442.9 ± 2.1 kg/m3; in data set [1] (x1 = 0.4995) it was 1444.2 ± 2.1 kg/m3; in data set [1] (x1 = 0.6047) it was 1445.5 ± 2.1 kg/m3; in data set [1] (x1 = 0.8024), 1447.7 ± 2.1 kg/m3; in data set [1] (x1 = 1), 1449.7 ± 2.1 kg/m3.
Take `CCCC[n+]1ccn(C)c1.O=S(=O)([N-]S(=O)(=O)C(F)(F)F)C(F)(F)F`: in data set [2], the surface tension liquid-gas is recorded as 33.15 ± 1.1 mN/m and the mass density was 1436.9 ± 2.1 kg/m3.
For `CCC[N+]1(C)CCCCC1.O=S(=O)([N-]S(=O)(=O)C(F)(F)F)C(F)(F)F` the same measures were 35.17 ± 1.1 mN/m and 1411.4 ± 2.1 kg/m3.
